The text below walks through data of ChEMBL document CHEMBL3727361, “Nitrogen bicyclic compounds as inhibitors for Scyl1 and Grk5” (2014).

The test system of one series is Beta-TC6. Nature of the series: Increase in insulin release in mouse BetaTC6 cells assessed as relative insulin release activity at 10 uM incubated for 2 to 4 hrs by FRET based HTRF assay relative to sunitinib. The series is classed as functional.
Conditions: not given
A general note: In TR-FRET formats the signal depends on donor and acceptor labels being close together.
Take `Cn1cc(-c2ccc3ncc(-c4cccs4)n3n2)cn1`: the Activity was determined as 20%.
Consider `NC(=O)c1ccc(-c2cnc3ccc(Cc4ccc(F)cc4)nn23)cc1`, for which the Activity stood at 20%.
On the same count and under the same terms, the figure for `NC(=O)c1ccc(-c2cnc3ccc(Cc4ccccc4)nn23)cc1` is 20%.
The same measure, in the same setting: for `COc1cc(-c2ccc3ncc(-c4cccc(C(=O)NCCN(C)C)c4)n3n2)ccc1O` the value was 10%.
On to `CN(C)c1ccc(-c2ccc3nnc(-c4cccnc4)n3c2)cc1`, for which the Activity was 50%.
As to `CN(C)c1ccc(-c2cnc3cnc(-c4cccc(NS(C)(=O)=O)c4)cn23)cc1`, the Activity came to 20%.
On to `CN(C)c1cccc(-c2ccc3ncc(-c4cccs4)n3n2)c1`, for which the Activity is given as 20%.
For the molecule `CS(=O)(=O)Nc1ccc(-c2cnc3cccnn23)cc1`, the Activity is given as 10%.
On the same count and under the same terms, for `FC(F)(F)c1cccc(-c2cnc3ccc(C4CC4)nn23)c1` the value was 10%.
For the molecule `Clc1ccccc1-c1ccc2nnc(-c3cccnc3)n2c1`, the Activity was 50%.
Turning to `c1ccc(Oc2ccccc2-c2cn3c(-c4ccncc4)cnc3cn2)cc1`, the Activity was determined as 20%.
Consider `FC(F)(F)Oc1ccc(-c2cn3c(-c4cccs4)cnc3cn2)cc1`, for which the Activity was 20%.
For `COc1cc(-c2ccc3nnc(-c4cccc(C(F)(F)F)c4)n3c2)cc(OC)c1OC`, the Activity turned out to be 50%.
On to `Clc1ccccc1-c1ccc2nnc(-c3cscn3)n2c1`, for which the Activity is reported as 50%.
Regarding `COc1cc(OC)cc(-c2cnc3cnc(-c4cccc(OC(C)C)c4)cn23)c1`, the Activity is 20%.
As for `COc1ccc(-c2nnc3ccc(-c4cccc(N(C)C)c4)cn23)cc1OC`, the Activity worked out at 50%.
Take `COc1ccc(-c2cnc3cnc(-c4cccs4)cn23)cc1`: the Activity was found to be 20%.
The same measure, in the same setting: for `c1ccc(-c2cn3c(-c4ccc5c(c4)OCO5)cnc3cn2)cc1` the value was 50%.
The same measure, in the same setting: for `c1csc(-c2ccc3nnc(-c4ccoc4)n3c2)c1` the value was 50%; for `COc1cc(-c2cnc3cnc(-c4ccc5c(c4)OCO5)cn23)ccc1O`, 20%; for `CC(=O)c1cccc(-c2cnc3cnc(-c4cccc(F)c4)cn23)c1`, 20%.
Take `COc1cc(-c2cnc3ccc(-c4cccc(OC(F)(F)F)c4)nn23)ccc1O`: the Activity is 10%.
With `c1cncc(CCNc2ccc3ncc(-c4ccc5ccccc5c4)n3n2)c1`, the Activity was found to be 10%.
`CC(C(=O)Nc1cnc2cnc(-c3cccc([N+](=O)[O-])c3)cn12)c1ccccc1` (configuration not stated): the Activity worked out at 20%.
As for `O=C(NCCO)c1ccc(-c2cnc3cccnn23)cc1`, the Activity was 10%.
In the case of `COc1cc(OC)cc(-c2cn3c(-c4ccsc4)cnc3cn2)c1`, the Activity amounted to 20%.
For `c1csc(-c2cnc3cnc(-c4ccsc4)cn23)c1`, the Activity was 50%.
For `Clc1cccc(-c2ccc3nnc(-c4ccc5c(c4)OCO5)n3c2)c1`, the Activity came to 20%.
As for `CC(=O)Nc1cccc(-c2ccc3nnc(-c4ccccc4)n3c2)c1`, the Activity amounted to 50%.
The same measure, in the same setting: the figure for `CN1CCN(C(=O)c2cccc(-c3cnc4cnc(-c5cccc(Cl)c5)cn34)c2)CC1` is 20%; for `Nc1ccc(-c2cn3c(-c4cccs4)cnc3cn2)cn1` it is 20%.
Regarding `CN(C)C(=O)c1ccc(-c2cnc3cnc(-c4ccccc4Oc4ccccc4)cn23)cc1`, the Activity is reported as 20%.
Consider `COc1ccc(-c2ccc3nnc(-c4ccccc4)n3c2)c(C)c1`, for which the Activity entry is on record as “>=100%”.
Regarding `OCc1ccc(-c2cn3c(-c4cccc(Cl)c4)cnc3cn2)cc1`, the Activity was 20%.
As to `Cn1ccc2cc(-c3cn4c(-c5ccc6ncccc6c5)cnc4cn3)ccc21`, the Activity result is “>=100%”.
Consider `Clc1cccc(-c2nnc3ccc(-c4cncc5ccccc45)cn23)c1`, for which the Activity was 50%.
Still for that read-out and setting: for `CC(=O)Nc1cccc(-c2cn3c(-c4ccc(C(=O)N(C)C)cc4)cnc3cn2)c1` the value was 20%; for `O=C(O)CCc1ccc(-c2cnc3cnc(-c4cccs4)cn23)cc1`, 20%; for `CN(C)CCCOc1ccc(-c2nnc3ccc(-c4ccc(Cl)cc4)cn23)cc1`, 20%.
As to `COc1cccc(-c2ccc3nnc(-c4cscn4)n3c2)c1`, the Activity amounted to 50%.
For the molecule `CC(=O)c1cccc(-c2cnc3cnc(-c4ccc(C(=O)NCCN(C)C)cc4)cn23)c1`, the Activity is 20%.
As for `CS(=O)(=O)Nc1cccc(-c2cn3c(-c4cccs4)cnc3cn2)c1`, the Activity is listed as 20%.
As to `CN(C)c1ccc(-c2cnc3cnc(-c4ccccc4Cl)cn23)cc1`, the Activity turned out to be 20%.
Same read-out and setting: the figure for `CN(C)c1ccc(-c2cnc3cnc(-c4cccc(C(N)=O)c4)cn23)cc1` is 20%; for `CN(C)CCCOc1ccc(-c2cn3c(-c4cccc(N(C)C)c4)cnc3cn2)cn1` it is 20%; for `Cn1cc(-c2cnc3cnc(-c4ccncc4)cn23)cn1` it is 20%.
As for `CN(C)CCCOc1ccc(-c2cn3c(-c4ccc(N(C)C)cc4)cnc3cn2)cn1`, the Activity is listed as 50%.
Turning to `Fc1ccc(-c2ccc3nnc(-c4cscn4)n3c2)cc1Cl`, the Activity was 20%.
As for `c1csc(-c2cn3c(-c4ccc5c(c4)OCO5)cnc3cn2)c1`, the Activity came out at 50%.
Same read-out and setting: for `CNc1ccc2ncc(-c3cccc(C(=O)N(C)C)c3)n2n1` the value was 20%; for `O=C(Nc1cnc2cnc(-c3ccsc3)cn12)c1cccs1`, 20%.
`c1ccc(Oc2cccc(-c3ccc4nnc(-c5ccncc5)n4c3)c2)cc1`: the Activity amounted to 20%.
`Fc1ccc(-c2cnc3cnc(-c4ccco4)cn23)cc1Cl`: the Activity stood at 20%.
With `CN(C)CCCOc1ccc(-c2nnc3ccc(C#Cc4ccc(C(=O)N(C)C)cc4)cn23)cc1`, the Activity was found to be 20%.
Take `CN(C)C(=O)c1ccc(-c2ccc3nnc(-c4cccc(C(F)(F)F)c4)n3c2)cc1`: the Activity is on record as 20%.
For the molecule `CS(=O)(=O)Nc1cccc(-c2cn3c(-c4ccc5ncccc5c4)cnc3cn2)c1`, the Activity is reported as 20%.
As for `COc1ccc(-c2cnc3ccc(NCCCO)nn23)cc1`, the Activity is 10%.
Still for that read-out and setting: the figure for `c1cc2cc(-c3ccc4nnc(-c5cscn5)n4c3)ccc2[nH]1` is 50%.
Take `N#Cc1ccc(-c2cnc3cnc(-c4ccccc4)cn23)cc1`: the Activity was 20%.
Still for that read-out and setting: the figure for `Nc1cccc(-c2cn3c(NC(=O)Cc4ccc(F)c(F)c4)cnc3cn2)c1` is 10%; for `Nc1cccc(-c2ccc3nnc(-c4cccc(Cl)c4)n3c2)c1` it is 50%; for `Nc1cccc(-c2ccc3ncc(-c4cccc(Cl)c4)n3n2)c1` it is 20%.
Still for that read-out and setting: the figure for `COc1cc(CNc2ccc3ncc(-c4ccc(N(C)C)cc4)n3n2)cc(OC)c1OC` is 10%; for `c1ccc(-c2cnc3cnc(-c4ccsc4)cn23)cc1` it is 20%.
For the molecule `c1cc(-c2nnc3ccc(-c4ccc(N5CCOCC5)cc4)cn23)ccn1`, the Activity is recorded as 20%.
Still for that read-out and setting: for `O=C(O)CCc1ccc(-c2cnc3cnc(-c4ccccc4Cl)cn23)cc1` the value was 50%; for `COc1ccc(-c2nnc3ccc(-c4cccc(C(=O)N(C)C)c4)cn23)cc1OC`, 50%; for `CN1CCN(C(=O)c2ccc(-c3cnc4cnc(/C=C/c5ccccc5)cn34)cc2)CC1`, 10%.
For the molecule `c1nc(-c2nnc3ccc(-c4ccc(N5CCOCC5)cc4)cn23)cs1`, the Activity is recorded as 50%.
Regarding `CCC(CO)Nc1ccc2ncc(-c3ccccc3Cl)n2n1` (configuration not stated), the Activity came out at 10%.
Still for that read-out and setting: the figure for `Cn1ccc2cc(-c3cnc4cnc(-c5cccc(C(=O)NCCO)c5)cn34)ccc21` is 20%; for `COc1cc(-c2cnc3cnc(-c4ccc(OCCCN(C)C)nc4)cn23)ccc1O` it is 20%.
Same read-out and setting: the figure for `CS(=O)(=O)Nc1cccc(-c2cn3c(-c4cccnc4)cnc3cn2)c1` is 20%; for `CS(=O)(=O)Nc1cccc(-c2cnc3ccc(Cc4ccc(F)cc4)nn23)c1` it is 10%; for `Nc1ccc(-c2ccc3nnc(-c4cccc(C(F)(F)F)c4)n3c2)cn1` it is 20%.
Turning to `COc1cccc(-c2cn3c(NC(=O)Cc4ccsc4)cnc3cn2)c1`, the Activity was determined as 20%.
In the case of `c1csc(-c2cn3c(-c4ccncc4)cnc3cn2)c1`, the Activity is listed as 20%.

The test system of another series is C2C12. The series can be described thus: Cytotoxic activity against mouse C2C12 cells assessed as inhibition of cell proliferation of at 2 to 10 uM incubated for 72 hrs by MTT assay. The series is classed as cell-based. The following applies: c2c12, 72 h.
For `Cn1cc(-c2ccc3ncc(-c4cccs4)n3n2)cn1`, the Activity entry is given as “Toxic”.
Take `NC(=O)c1ccc(-c2cnc3ccc(Cc4ccc(F)cc4)nn23)cc1`: the Activity result is “Toxic”.
Turning to `NC(=O)c1ccc(-c2cnc3ccc(Cc4ccccc4)nn23)cc1`, the Activity entry is “Toxic”.
Still for that read-out and setting: the entry for `COc1cc(-c2ccc3ncc(-c4cccc(C(=O)NCCN(C)C)c4)n3n2)ccc1O` is “Toxic”.

Tested on in the next series: not listed separately
The series can be described thus: Effect on insulin release in mouse BetaTC6 cells assessed as ratio of insulin release incubated for 2 hrs in presence of low glucose media by ELISA relative to DMSO. In kind it is cell-based. The following applies: beta-tc6, 2 h. On the technique in general: An ELISA detects its analyte on a solid surface through an enzyme-linked reagent.
Turning to `Cn1cc(-c2ccc3ncc(-c4cccs4)n3n2)cn1`, the Activity result is “Non-toxic”.
